ChEMBL document CHEMBL4673385, “Discovery of Potent Inhibitors of Streptococcus mutans Biofilm with Antivirulence Activity” (ACS Med Chem Lett, 2021)
In brackets after ≈: the same amount, converted by molar mass. Activity calls are given as the source filed them. No rule for the calls is given here.

Tests used:
Streptococcus mutans [1] = assay: Bactericidal activity against Streptococcus mutans UA159 assessed as reduction in bacterial growth at 100 uM after 24 hrs; format: functional, organism-based
Streptococcus mutans [2] = assay: Antibiofilm activity against Streptococcus mutans UA159 assessed as inhibition of biofilm formation by serial dilution method; format: functional, organism-based
[3] = Solubility of compound in water; format: physicochemical
[4] = Streptococcus mutans, UA159, read-out: IC50

| IC50 (Streptococcus mutans [2]; [4]) | solubility ([3]; water, read-out: solubility) | solubility ([3]; buffer) | IC50 (Streptococcus mutans [2]) | Compound | Activity (Streptococcus mutans [1]) |
| --- | --- | --- | --- | --- | --- |
| – | 10 µg/mL (≈ 34.3 µM) | – | – | NC(=O)c1cccc(NC(=O)c2ccc3ccccc3n2)c1 | inactive |
| 54.4 µM | 25 µg/mL (≈ 70.2 µM) | – | – | COC(=O)c1cccc(NC(=O)c2cc3cc([N+](=O)[O-])ccc3s2)c1 | inactive |
| 110 µM | < 5 µg/mL | – | – | NC(=O)c1ccc(NC(=O)c2ccc3ccccc3c2)cc1 | inactive |
| 41.2 µM | 20 µg/mL (≈ 64.2 µM) | – | – | COC(=O)c1ccc(NC(=O)c2cc3ccccc3s2)cc1 | inactive |
| 105 µM | < 5 µg/mL | – | – | COC(=O)c1cccc(NC(=O)c2ccc(-c3ccccc3)cc2)c1 | inactive |
| > 300 µM | – | – | – | NC(=O)c1ccc(NC(=O)c2cnc3ccccc3c2)cc1 | inactive |
| 67.5 µM | < 5 µg/mL | – | – | CC(C)(C)OC(=O)NCc1ccccc1NC(=O)c1ccc2ccccc2n1 | inactive |
| > 300 µM | – | – | – | COC(=O)c1ccc(NC(=O)c2cccc3ccccc23)cc1 | inactive |
| > 300 µM | < 5 µg/mL | – | – | COC(=O)c1cccc(NC(=O)c2cccc3ccccc23)c1 | inactive |
| – | – | Insoluble | Nd(Insoluble) | COC(=O)c1cccc(NC(=O)c2cc3cc([N+](=O)[O-])ccc3[nH]2)c1 | inactive |
| 202 µM | 25 µg/mL (≈ 90.1 µM) | – | – | NCc1ccccc1NC(=O)c1ccc2ccccc2n1 | inactive |
| 92.3 µM | 25 µg/mL (≈ 81.6 µM) | – | – | COC(=O)c1cccc(NC(=O)c2ccc3ccccc3n2)c1 | inactive |
| 79.9 µM | 25 µg/mL (≈ 79 µM) | – | – | NC(=O)c1cccc(NC(=O)c2ccc(-c3ccccc3)cc2)c1 | inactive |
| > 300 µM | 5 µg/mL (≈ 16.4 µM) | – | – | COC(=O)c1cccc(NC(=O)c2ccc3ccccc3c2)c1 | inactive |
| 54.4 µM | 5 µg/mL (≈ 17.2 µM) | – | – | NC(=O)c1ccc(NC(=O)c2ccc3ccccc3n2)cc1 | inactive |
| 240 µM | < 5 µg/mL | – | – | NC(=O)c1cccc(NC(=O)c2ccc3ccccc3c2)c1 | inactive |
| – | < 5 µg/mL | – | – | NC(=O)c1cccc(NC(=O)c2cc3ccccc3s2)c1 | inactive |
| > 300 µM | 5 µg/mL (≈ 16.4 µM) | – | – | COC(=O)c1ccccc1NC(=O)c1cccc2ccccc12 | inactive |
| > 300 µM | – | – | – | COC(=O)c1ccc(NC(=O)c2ccc(-c3ccccc3)cc2)cc1 | inactive |
| 142 µM | < 5 µg/mL | – | – | COC(=O)c1ccccc1NC(=O)c1cnc2ccccc2c1 | inactive |
| – | 25 µg/mL (≈ 81.9 µM) | – | – | COC(=O)c1ccccc1NC(=O)c1ccc2ccccc2c1 | inactive |
| 89.5 µM | < 5 µg/mL | – | – | COC(=O)c1ccccc1NC(=O)c1ccc2ccccc2n1 | inactive |
| > 300 µM | – | – | – | O=C(Nc1ccccc1)c1ccc2ccccc2c1 | inactive |
| 112 µM | 25 µg/mL (≈ 81.9 µM) | – | – | COC(=O)c1ccc(NC(=O)c2ccc3ccccc3c2)cc1 | inactive |
| – | < 5 µg/mL | – | – | NC(=O)c1ccc(NC(=O)c2cccc3ccccc23)cc1 | inactive |
| – | – | Insoluble | Nd(Insoluble) | COC(=O)c1cccc(NC(=O)c2cc3cc(OC)ccc3[nH]2)c1 | inactive |
| > 300 µM | 25 µg/mL (≈ 101 µM) | – | – | O=C(Nc1ccccc1)c1ccc2ccccc2n1 | inactive |
| – | 10 µg/mL (≈ 34.4 µM) | – | – | NC(=O)c1cccc(NC(=O)c2cccc3ccccc23)c1 | inactive |
| – | 25 µg/mL (≈ 81.6 µM) | – | – | COC(=O)c1ccc(NC(=O)c2ccc3ccccc3n2)cc1 | inactive |

Further lines, the compound ahead of its results:

| Compound | IC50 (Streptococcus mutans [2]; [4]) | solubility ([3]; water, read-out: solubility) | solubility ([3]; buffer) | IC50 (Streptococcus mutans [2]) | Activity (Streptococcus mutans [1]) |
| --- | --- | --- | --- | --- | --- |
| O=C(Nc1ccccc1)c1cc2ccccc2s1 | > 300 µM | – | – | – | inactive |
| CC(C)(C)OC(=O)NCc1ccccc1NC(=O)c1cc2cc([N+](=O)[O-])ccc2o1 | 26.8 µM | 25 µg/mL (≈ 60.8 µM) | – | – | inactive |
| NC(=O)c1ccc(NC(=O)c2cc3cc([N+](=O)[O-])ccc3[nH]2)cc1 | – | – | Insoluble | Nd(Insoluble) | inactive |
| CC(C)(C)OC(=O)NCc1ccccc1NC(=O)c1ccc2ccccc2c1 | 56.8 µM | – | – | – | inactive |
| COc1ccc2[nH]c(C(=O)Nc3ccccc3)cc2c1 | – | – | Insoluble | Nd(Insoluble) | inactive |
| COc1ccc2[nH]c(C(=O)Nc3ccccc3CN)cc2c1 | – | – | Insoluble | Nd(Insoluble) | inactive |
| COC(=O)c1ccccc1NC(=O)c1cc2cc([N+](=O)[O-])ccc2o1 | 71.4 µM | 25 µg/mL (≈ 73.5 µM) | – | – | inactive |
| COc1ccc2[nH]c(C(=O)Nc3ccccc3C(N)=O)cc2c1 | > 300 µM | 10 µg/mL (≈ 32.3 µM) | – | – | inactive |
| COC(=O)c1ccc(NC(=O)c2cc3cc([N+](=O)[O-])ccc3[nH]2)cc1 | – | – | Insoluble | Nd(Insoluble) | inactive |
| NC(=O)c1ccc(NC(=O)c2cc3cc([N+](=O)[O-])ccc3s2)cc1 | > 300 µM | – | – | – | inactive |
| COC(=O)c1ccccc1NC(=O)c1cc2ccccc2s1 | > 300 µM | – | – | – | inactive |
| NC(=O)c1ccccc1NC(=O)c1ccc2ccccc2c1 | 84.1 µM | 25 µg/mL (≈ 86.1 µM) | – | – | inactive |
| COC(=O)c1ccc(NC(=O)c2cc3cc([N+](=O)[O-])ccc3o2)cc1 | – | 20 µg/mL (≈ 58.8 µM) | – | – | inactive |
| NCc1ccccc1NC(=O)c1cnc2ccccc2c1 | – | 5 µg/mL (≈ 18 µM) | – | – | inactive |
| NCc1ccccc1NC(=O)c1cc2cc([N+](=O)[O-])ccc2[nH]1 | – | – | – | – | inactive |
| NCc1ccccc1NC(=O)c1cc2cc([N+](=O)[O-])ccc2o1 | 98.3 µM | 5 µg/mL (≈ 16.1 µM) | – | – | inactive |
| COC(=O)c1ccc(NC(=O)c2cc3cc(OC)ccc3[nH]2)cc1 | – | – | Insoluble | Nd(Insoluble) | inactive |
| NCc1ccccc1NC(=O)c1cccc2ccccc12 | 224 µM | 25 µg/mL (≈ 90.5 µM) | – | – | inactive |
| O=C(Nc1ccccc1)c1cccc2ccccc12 | > 300 µM | – | – | – | inactive |
| NCc1ccccc1NC(=O)c1ccc(-c2ccccc2)cc1 | 196 µM | – | – | – | inactive |
| CC(C)(C)OC(=O)NCc1ccccc1NC(=O)c1ccc(-c2ccccc2)cc1 | 124 µM | < 5 µg/mL | – | – | inactive |
| COc1ccc2[nH]c(C(=O)Nc3ccccc3CNC(=O)OC(C)(C)C)cc2c1 | – | – | Insoluble | Nd(Insoluble) | inactive |
| O=C(Nc1ccccc1)c1cc2cc([N+](=O)[O-])ccc2[nH]1 | – | – | Insoluble | Nd(Insoluble) | inactive |

| Compound | IC50 (Streptococcus mutans [2]; [4]) | solubility ([3]; water, read-out: solubility) | solubility ([3]; buffer) | IC50 (Streptococcus mutans [2]) | Activity (Streptococcus mutans [1]) |
| --- | --- | --- | --- | --- | --- |
| COc1ccc2[nH]c(C(=O)Nc3cccc(C(N)=O)c3)cc2c1 | 56.6 µM | 5 µg/mL (≈ 16.2 µM) | – | – | inactive |
| NC(=O)c1cccc(NC(=O)c2cc3cc([N+](=O)[O-])ccc3o2)c1 | 38.8 µM | 20 µg/mL (≈ 61.5 µM) | – | – | inactive |
| CC(C)(C)OC(=O)NCc1ccccc1NC(=O)c1cccc2ccccc12 | 196 µM | 5 µg/mL (≈ 13.3 µM) | – | – | inactive |
| CC(C)(C)OC(=O)NCc1ccccc1NC(=O)c1cc2cc([N+](=O)[O-])ccc2[nH]1 | – | – | Insoluble | Nd(Insoluble) | inactive |
| NC(=O)c1ccccc1NC(=O)c1cc2cc([N+](=O)[O-])ccc2o1 | – | 5 µg/mL (≈ 15.4 µM) | – | – | inactive |
| COC(=O)c1cccc(NC(=O)c2cnc3ccccc3c2)c1 | – | – | – | – | inactive |
| NC(=O)c1ccccc1NC(=O)c1cc2ccccc2s1 | 45.6 µM | < 5 µg/mL | – | – | inactive |
| NC(=O)c1ccc(NC(=O)c2ccc(-c3ccccc3)cc2)cc1 | > 300 µM | < 5 µg/mL | – | – | inactive |
| NC(=O)c1ccccc1NC(=O)c1cc2cc([N+](=O)[O-])ccc2[nH]1 | – | – | Insoluble | Nd(Insoluble) | inactive |
| COC(=O)c1ccccc1NC(=O)c1ccc(-c2ccccc2)cc1 | > 300 µM | – | – | – | inactive |
| NC(=O)c1ccc(NC(=O)c2cc3ccccc3s2)cc1 | 45.6 µM | 25 µg/mL (≈ 84.4 µM) | – | – | inactive |
| O=C(Nc1ccccc1)c1ccc(-c2ccccc2)cc1 | > 300 µM | – | – | – | inactive |
| NC(=O)c1ccc(NC(=O)c2cc3cc([N+](=O)[O-])ccc3o2)cc1 | > 300 µM | – | – | – | inactive |
| CC(C)(C)OC(=O)NCc1ccccc1NC(=O)c1cc2ccccc2s1 | 43.4 µM | 20 µg/mL (≈ 52.3 µM) | – | – | inactive |
| NC(=O)c1cccc(NC(=O)c2cc3cc([N+](=O)[O-])ccc3[nH]2)c1 | – | – | Insoluble | Nd(Insoluble) | inactive |
| NC(=O)c1ccccc1NC(=O)c1cccc2ccccc12 | 150 µM | – | – | – | inactive |
| O=C(Nc1ccccc1)c1cnc2ccccc2c1 | > 300 µM | 5 µg/mL (≈ 20.1 µM) | – | – | inactive |
| COc1ccc2[nH]c(C(=O)Nc3ccc(C(N)=O)cc3)cc2c1 | > 300 µM | – | – | – | inactive |
| NCc1ccccc1NC(=O)c1ccc2ccccc2c1 | – | – | – | – | inactive |
| NCc1ccccc1NC(=O)c1cc2cc([N+](=O)[O-])ccc2s1 | – | 1000 µg/mL (≈ 3050 µM) | – | – | inactive |
| COC(=O)c1ccccc1NC(=O)c1cc2cc([N+](=O)[O-])ccc2s1 | > 300 µM | – | – | – | inactive |
| COC(=O)c1cccc(NC(=O)c2cc3ccccc3s2)c1 | – | – | – | – | inactive |
| NCc1ccccc1NC(=O)c1cc2ccccc2s1 | 167 µM | – | – | – | inactive |
